# Measurements reported in publication PMC12921516 (ACS Bio & Med Chem Au, 2025).
# Read-outs that look alike come from different tables or passages of the source.
# What was measured:
# hPTP1B1–400 [1] = target: T1, hPTP1B1–400 (Homo sapiens, UniProt P18031); experiment: PTP1B inhibition, pNPP hydrolysis, long form; format: biochemical
# T1 construct: h PTP1B 1–400 IC 50 (μM ± S.D); made in house
# T1 sequence (P18031 1-400): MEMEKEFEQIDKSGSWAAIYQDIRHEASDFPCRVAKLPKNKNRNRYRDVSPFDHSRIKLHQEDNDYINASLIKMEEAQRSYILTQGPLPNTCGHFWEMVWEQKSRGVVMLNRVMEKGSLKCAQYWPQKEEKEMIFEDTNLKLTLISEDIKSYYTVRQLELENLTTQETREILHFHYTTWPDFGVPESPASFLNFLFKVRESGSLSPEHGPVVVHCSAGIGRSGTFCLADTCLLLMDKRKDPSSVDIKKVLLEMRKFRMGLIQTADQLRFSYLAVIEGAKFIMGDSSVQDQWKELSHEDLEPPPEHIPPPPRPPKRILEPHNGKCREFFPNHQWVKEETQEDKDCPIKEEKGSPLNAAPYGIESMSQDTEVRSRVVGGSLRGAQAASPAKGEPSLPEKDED
# HepG2 cells [2] = experiment: Cell viability of HepG2 with crystal violet; format: cell-based, human; details: 1, 10, and 30 µM for 24, 48 and 72 h
# Procedure: A 96-well plate was seeded with 3,000 HepG2 cells per well and incubated for 72 h. Subsequently, the cells were treated with test compounds at various concentrations for 24, 48, and 72 h. After incubation, the medium was removed, and 100 μL of 1% glutaraldehyde was added for 15 min. The glutaraldehyde was then removed, and 50 μL of 0.5% crystal violet (dissolved in 25% methanol) was added for 30 min. The crystal violet staining solution was subsequently removed, and the plate was thoroughly rinsed with tap water. The precipitate was dissolved in a 10% acetic acid solution, mixed for 15 min, and the absorbance was measured at 590 nm using a plate reader (xMark Microplate Spectrophotometer, Bio-Rad).
# Figure S48. Cell viability assessment by crystal violet staining. HepG2 cell viability was evaluated after treatment with the respective compounds at concentrations of 1 , 10, and 30 µM for 24 , 48 and 72 hours. Bar graphs represent mean ± SEM. No significant differences were detected using ANOVA. […]
# [3] = tested on: insulin-resistant HepG2 cells; experiment: Western blotting, insulin-resistant HepG2 model; format: cell-based, human; details: 24 h
# Procedure: (§1) HepG2 cells were obtained directly from ATCC (HB-8065) and cultured in DMEM with low glucose, supplemented with fetal bovine serum, 100 U/mL penicillin G, and […] streptomycin. The media was freshly prepared and sterilized by filtration. Cells were maintained with a maximum of 10 passages before being discarded. For cell counting, the cells were washed twice with phosphate-buffered saline (PBS), trypsinized, and counted using a Neubauer chamber. For the insulin-resistant model, 75,000 cells per well were seeded in 6-well plates at 37 °C in 5% CO2 and cultured for 72 h. Subsequently, insulin (0.1 μM) was added to induce insulin resistance for 24 h. After this period, inhibitors were incubated for 24 h, followed by a final 30 min insulin stimulation (0.1 μM) before protein extraction. For the normal model, 75,000 cells per well were seeded in 6-well plates at 37 °C in 5% CO2 and cultured for 96 h. After that, the cells were incubated with the inhibitors for 24 h, followed by protein extraction.
# (§2) Treated cells were washed twice with 1 mL of PBS, and proteins were extracted using 300 μL of a buffer solution containing 10% sodium deoxycholate in 10% TEAB, supplemented with a protease and phosphatase inhibitor cocktail. The extracts were heated at 80 °C for 5 min and dissociated by repeated passages through an insulin syringe. The cell extracts were centrifuged at 15,000 rpm for 15 min at 4 °C, and the supernatant was collected. Protein quantification was performed using the bicinchoninic acid assay, and aliquots were prepared for Western blotting. SDS-PAGE was conducted, and proteins were transferred onto a nitrocellulose membrane. The membrane was blocked with 10% skim milk in TBST for 1 h and incubated overnight with primary antibodies (1:400 dilution). Secondary antibodies conjugated to horseradish peroxidase were diluted 1:2,000, and the membranes were incubated for 1 h at room temperature. Blots were visualized using the ChemiDoc MP (Bio-Rad), and densitometric analysis was performed with ImageJ (U.S. National Institutes of Health). Statistical analyses were conducted using GraphPad Prism 8.0.
# resistance model in HepG2 cells . a) Western blotting representative analysis (n=3) of PTP1B, p -AKT, p-IRS1 and p-STAT3 levels
# of HepG2 cells treated with the compounds at 24 h of treatment. β-actin was employed as loading control. b) Densitometric
# analysis of western blot images employing ImageJ analysis software. Bar graphs represent the mean ± SEM of normalized values.
# The control levels were set to 1. Asterisks indicate statistical significance according to the Dunn test. p* < 0.05.
# (§3) (1 picture or pasted object on this page, not shown here)
# hTCPTP1–415 [4] = target: T2, hTCPTP1–415 (Homo sapiens, UniProt P17706); details: read-out: hTCPTP1–415 IC50, cited from earlier work
# T2 construct: h TCPTP 1–415 IC 50 (μM ± S.D); made in house
# T2 sequence (P17706 1-415): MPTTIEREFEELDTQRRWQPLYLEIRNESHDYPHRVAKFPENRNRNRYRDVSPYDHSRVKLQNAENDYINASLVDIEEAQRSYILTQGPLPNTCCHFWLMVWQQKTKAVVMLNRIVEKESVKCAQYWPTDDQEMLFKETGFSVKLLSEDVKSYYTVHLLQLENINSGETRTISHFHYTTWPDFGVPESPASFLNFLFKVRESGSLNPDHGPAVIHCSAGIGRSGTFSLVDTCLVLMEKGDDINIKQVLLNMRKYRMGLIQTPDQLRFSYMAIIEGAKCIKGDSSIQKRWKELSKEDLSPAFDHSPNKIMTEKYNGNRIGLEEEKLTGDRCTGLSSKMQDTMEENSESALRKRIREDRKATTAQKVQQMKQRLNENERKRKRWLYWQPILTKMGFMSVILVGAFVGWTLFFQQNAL
# hPTP1B1–400 [5] = target: T1, hPTP1B1–400; experiment: Enzymatic kinetics studies (Lineweaver–Burk, model fitting); format: biochemical; details: for inhibition type: hPTP1B1–400, best fit model; for Km / Vmax: hPTP1B1–400 with inhibitor
# Procedure: Kinetic analyses were conducted using varying concentrations of substrate and inhibitor.
# Five increasing concentrations of each inhibitor were tested, according to their previously determined IC50 values. The negative control was prepared by omitting the inhibitor in the presence of the enzyme and substrate. The Supporting Information includes detailed eqs (E1–E5) used to determine the kinetic parameters and mechanisms involved in PTP1B inhibition.
# Equation 1 was used to obtain enzyme kinetic parameters by fitting data to the Michaelis-Menten model (Origin Pro
# The equations defined for the following non-linear inhibition models were used to determine the mechanism of
# PTP1B inhibition: competitive (E2), non-competitive (E3), uncompetitive (E4), and mixed (E5) (Origin Pro 2018 (64
# (1+ ( ))(x05nh ) + (1+ ( )) (x05 nh)
# Vmax is the maximum velocity, x is the substrate concentration, i is the inhibitor concentration, nh is the number of
# Hill. Ki is the inhibition constant, and Km is the Michaelis constant.
# HepG2 cells [6] = experiment: Western blotting, HepG2 normal model; format: cell-based, human; details: 24 h
# Procedure: as §1, §2
# compounds at 24 h of treatment. β-actin was employed as loading control. b) Densitometric analysis of western blot images
# employing ImageJ analysis software. Bar graphs represent the mean ± SEM of normalized values. The control levels were set to
# 1. Asterisks indicate statistical significance according to the Dunn test. p* < 0.05
# as §3
# hPTP1B1–400 [7] = target: T1, hPTP1B1–400; details: footnote c: IC50 values retrieved from the reference; previously tested by our group; cited from earlier work
# hPTP1B1–285 = target: T3, hPTP1B1–285 (Homo sapiens, UniProt P18031); details: footnote c: IC50 values retrieved from the reference; cited from earlier work
# T3 construct: h PTP1B 1–285 IC 50 (μM ± S.D); made in house
# T3 sequence (P18031 1-285): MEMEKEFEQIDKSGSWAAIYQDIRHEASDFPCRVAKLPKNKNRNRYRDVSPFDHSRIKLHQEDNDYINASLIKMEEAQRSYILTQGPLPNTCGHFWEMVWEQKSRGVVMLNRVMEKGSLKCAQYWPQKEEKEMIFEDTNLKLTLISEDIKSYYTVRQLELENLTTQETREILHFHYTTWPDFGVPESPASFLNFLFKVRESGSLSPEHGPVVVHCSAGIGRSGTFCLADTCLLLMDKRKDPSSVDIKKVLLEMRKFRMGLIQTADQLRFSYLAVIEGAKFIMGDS
# [8] = tested on: STZ-induced diabetic rats; details: earlier study of the group; cited from earlier work
# HFF-1 cells = experiment: Cytotoxicity, Sulforhodamine B assay; format: cell-based, human; details: HFF-1 proliferation, 48-h incubation, 0.78 μM to 100 μM
# Procedure: Given the significance of a drug candidate’s toxicity in relation to its inhibition potential, a cytotoxicity assay was conducted using Normal Human Foreskin Fibroblasts (HFF-1).
# All assays were carried out in triplicate. Cell proliferation was determined by the Sulforhodamine B assay, and the half-maximal cytotoxic concentration (CC50) was determined by Probit analysis.
# hPTP1B1–400 [9] = target: T1, hPTP1B1–400; experiment: PTP1B inhibition, pNPP hydrolysis, long form; format: biochemical; details: pNPP substrate, 15 min 37 °C, pH 6.8; ± S.D
# Procedure: The inhibitory activity of PTP1B was assessed using the long form of the PTP1B enzyme (hPTP1B1–400). This enzyme comprises a highly conserved N-terminal catalytic domain, known as the PTP domain (PTP1B1–300), in addition to an intrinsically disordered regulatory domain (PTP1B301–400).
# The IC50 values obtained from these tests are detailed in Table .
# (§4) Aliquots of 0–10 μL of the test compounds (triplicate) were taken and incubated for 15 min at 37 °C with 85 μL of Tris buffer solution (50 mM, pH 6.8) containing PTP1B enzyme and 5 μL of p-nitrophenyl phosphate substrate (pNPP, 10 mM). The absorbance of the hydrolysis product, p-nitrophenol (pNP), was measured at 405 nm using a 96-microplate absorbance reader (Accuris SmartReader 96). The inhibitory activity was determined according to eq . %enzyme=(A405b/A405c)×100 1 Where: % enzyme is the percentage of inhibition for PTP1B or TCPTP
# (§5) The IC50 was calculated using regression analysis, eq : %inhibition=A100/1+(I/IC50)^s 2 Where: A100: Maximum inhibition
# hTCPTP1–415 [10] = target: T2, hTCPTP1–415; experiment: TCPTP inhibitory activity; format: biochemical; details: pNPP substrate; tested up to 100 μM
# Procedure: The effectiveness and safety of a PTP1B inhibitor primarily depend on its selectivity, given that protein tyrosine phosphatases share significant structural homology within their catalytic domains. […] Ertiprotafib was also included in this study.
# as §4, §5
# hPTP1B1–393 = details: reported elsewhere; cited from earlier work
structure (smiles),measurement,setting,value
"CC1(C)c2c(cnn2-c2ccc(C(=O)O)cc2)C[C@]2(C)[C@H]3C(=O)C=C4[C@@H]5C[C@@](C)(C(=O)O)CC[C@]5(C)CC[C@@]4(C)[C@]3(C)CC[C@@H]12 [compound 5e, (20β)-2′-(4-Carboxyphenyl)-11-oxo-2′H-oleana-2,12-dieno[3,2-c]pyrazol-29-oic Acid]",stability during evaluation,hPTP1B1–400 [1],unstable and rapidly degraded during evaluation
C[C@H]1[C@H](C)CC[C@]2(C(=O)O)CC[C@]3(C)C(=CC[C@@H]4[C@@]5(C)CC[C@H](O)C(C)(C)[C@@H]5CC[C@]43C)[C@H]12 [Ursolic acid],HepG2 cell viability,HepG2 cells [2],No significant differences
same,AKT phosphorylation (p-AKT) levels,[3],did not show significant changes
same,PTP1B levels,[3],"neither metformin, ursolic acid, nor the GA derivatives significantly reduced PTP1B levels"
same,p-IRS levels,[3],did not show significant changes
same,p-STAT3 levels,[3],did not show significant changes
same,IC50,hTCPTP1–415 [4]; footnote b: IC50 values retrieved from the reference,> 400 µM
same,inhibition type,hPTP1B1–400 [5],mixed-type
same,inhibition type,hPTP1B1–400 [5]; listed as ursolic acid,mixed
same,Km,hPTP1B1–400 [5],1700 ± 330 µM
same,Vmax,hPTP1B1–400 [5],0.63 ± 0.08 mM/min
same,AKT phosphorylation (p-AKT) levels,HepG2 cells [6],did not show significant changes
same,PTP1B levels,HepG2 cells [6],"neither metformin, ursolic acid, nor the GA derivatives significantly reduced PTP1B levels"
same,p-IRS levels,HepG2 cells [6],did not show significant changes
same,p-STAT3 levels,HepG2 cells [6],did not show significant changes
O=C(O)C(=O)Nc1sc2c(c1C(=O)O)CCNC2 [TCS401],IC50,hPTP1B1–400 [7],8.1 ± 1 µM
same,IC50,"hTCPTP1–415 [4]; footnote c: IC50 values retrieved from the reference, previously tested by our group",6.7 ± 0.6 µM
same,IC50,hPTP1B1–285,12.4 ± 1 µM
"CC1(C)c2[nH]c3ccc(C(F)(F)F)cc3c2C[C@]2(C)[C@H]3C(=O)C=C4[C@@H]5C[C@@](C)(C(=O)O)CC[C@]5(C)CC[C@@]4(C)[C@]3(C)CC[C@@H]12 [FC-114, reference compound]",antihyperglycemic effects,[8],"superior antihyperglycemic effects compared to glibenclamide and acarbose, but did not outperform pioglitazone"
same,CC50,HFF-1 cells,59.5 ± 3 µM
same,IC50,hPTP1B1–400 [9],1.75 ± 0.08 µM
"Cc1cc(-c2c3ccccc3c(Br)c3sc(C)c(C)c23)cc(C)c1O[C@H](Cc1ccccc1)C(=O)O [Ertiprotafib, reference compound]",IC50,hTCPTP1–415 [10],> 100 µM
same,inhibition type,hPTP1B1–393,noncompetitive inhibition
same,inhibition type,hPTP1B1–400 [5],uncompetitive
same,Km,hPTP1B1–400 [5],940 ± 190 µM
same,Vmax,hPTP1B1–400 [5],1.71 ± 0.24 mM/min
